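These data come from cells grown in 96-well plates and exposed to compound for 48 hours at five concentrations. At the GI50, growth is halved.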 Calls of active or inactive are those of the source. Cut-off read from the data, not from the text of the source: active = GI50 up to about 1.1 µM and inactive = higher.
What was measured:
Assay in all cases: NCI tumour cell line growth inhibition, 48 h
RXF 393 = test system: RXF 393
SF-268 = test system: SF-268
Hs-578T = test system: Hs-578T
786-0 = test system: 786-0
T47D = test system: T47D
SK-MEL-2 = test system: SK-MEL-2
MDA-MB-435 = test system: MDA-MB-435
SNB-75 = test system: SNB-75
MOLT-4 = test system: MOLT-4
NCI-H226 = test system: NCI-H226
A498 = test system: A498
M14 = test system: M14
OVCAR-4 = test system: OVCAR-4
DU-145 = test system: DU-145
UACC-257 = test system: UACC-257
EKVX = test system: EKVX
HT-29 = test system: HT-29
CAKI-1 = test system: CAKI-1
HCT-15 = test system: HCT-15
HCT-116 = test system: HCT-116
IGROV-1 = test system: IGROV-1
SK-MEL-28 = test system: SK-MEL-28
HOP-62 = test system: HOP-62
MDA-N = test system: MDA-N
RPMI-8226 = test system: RPMI-8226
MDA-MB-231 = test system: MDA-MB-231
SNB-19 = test system: SNB-19
Malme-3M = test system: Malme-3M
ACHN = test system: ACHN
KM12 = test system: KM12
NCI-H23 = test system: NCI-H23
TK-10 = test system: TK-10
SN12C = test system: SN12C
OVCAR-5 = test system: OVCAR-5
UACC-62 = test system: UACC-62
NCI-H522 = test system: NCI-H522
SK-MEL-5 = test system: SK-MEL-5
A549 = test system: A549
PC-3 = test system: PC-3
LOX IMVI = test system: LOX IMVI
HCC 2998 = test system: HCC 2998
K562 = test system: K562
COLO 205 = test system: COLO 205
U-251 = test system: U-251
OVCAR-3 = test system: OVCAR-3
SF-295 = test system: SF-295
OVCAR-8 = test system: OVCAR-8
UO-31 = test system: UO-31
SF-539 = test system: SF-539
SK-OV-3 = test system: SK-OV-3
HL-60 = test system: HL-60
CCRF-CEM = test system: CCRF-CEM
NCI/ADR-RES = test system: NCI/ADR-RES
MCF7 = test system: MCF7
NCI-H460 = test system: NCI-H460
SR = test system: SR
HOP-92 = test system: HOP-92
SW-620 = test system: SW-620

With `O=[N+]([O-])C(C(Cl)=C(Cl)Cl)=C(N1CCOCC1)N1CCOCC1` the GI50 (RXF 393) was > 100 µM (inactive), the GI50 (SF-268) was > 100 µM (inactive) and the GI50 (Hs-578T) was 54.2 µM (inactive). For the same molecule, the GI50 (786-0) was > 100 µM (inactive), the GI50 (T47D) was > 100 µM (inactive) and the GI50 (SK-MEL-2) was > 100 µM (inactive). For the same molecule, the GI50 (MDA-MB-435) was > 100 µM (inactive), the GI50 (SNB-75) was 1.14 µM (inactive) and the GI50 (MOLT-4) was 63.2 µM (inactive). For the same molecule, the GI50 (NCI-H226) was > 100 µM (inactive), the GI50 (A498) was > 100 µM (inactive) and the GI50 (M14) was > 100 µM (inactive). The GI50 (OVCAR-4) was > 100 µM (inactive), the GI50 (DU-145) was > 100 µM (inactive) and the GI50 (UACC-257) was > 100 µM (inactive). The GI50 (EKVX) was > 100 µM (inactive), the GI50 (HT-29) was > 100 µM (inactive) and the GI50 (CAKI-1) was > 100 µM (inactive). For the same molecule, the GI50 (HCT-15) was over 100 µM, the GI50 (HCT-116) was > 100 µM (inactive) and the GI50 (IGROV-1) was > 100 µM (inactive). For the same molecule, the GI50 (SK-MEL-28) was > 100 µM (inactive), the GI50 (HOP-62) was > 100 µM (inactive) and the GI50 (MDA-N) was > 100 µM (inactive). For the same molecule, the GI50 (RPMI-8226) was > 100 µM (inactive), the GI50 (MDA-MB-231) was > 100 µM (inactive) and the GI50 (SNB-19) was > 100 µM (inactive). The GI50 (Malme-3M) was 57.3 µM (inactive), the GI50 (ACHN) was > 100 µM (inactive) and the GI50 (KM12) was > 100 µM (inactive). The GI50 (NCI-H23) was > 100 µM (inactive), the GI50 (TK-10) was > 100 µM (inactive) and the GI50 (SN12C) was > 100 µM (inactive). For the same molecule, the GI50 (OVCAR-5) was > 100 µM (inactive), the GI50 (UACC-62) was > 100 µM (inactive) and the GI50 (NCI-H522) was > 100 µM (inactive). The GI50 (SK-MEL-5) was > 100 µM (inactive), the GI50 (A549) was > 100 µM (inactive) and the GI50 (PC-3) was > 100 µM (inactive). The GI50 (LOX IMVI) was > 100 µM (inactive), the GI50 (HCC 2998) was > 100 µM (inactive) and the GI50 (K562) was > 100 µM (inactive). The GI50 (COLO 205) was > 100 µM (inactive), the GI50 (U-251) was > 100 µM (inactive) and the GI50 (OVCAR-3) was > 100 µM (inactive). The GI50 (SF-295) was > 100 µM (inactive), the GI50 (OVCAR-8) was > 100 µM (inactive) and the GI50 (UO-31) was > 100 µM (inactive). For the same molecule, the GI50 (SF-539) was > 100 µM (inactive), the GI50 (SK-OV-3) was > 100 µM (inactive) and the GI50 (HL-60) was > 100 µM (inactive). The GI50 (CCRF-CEM) was > 100 µM (inactive).

In the case of `CCOC(=O)c1ccc(NCc2ccc3oc(=O)c(-c4ccccc4)nc3c2)cc1`, the GI50 (RXF 393) is reported as 8.36 µM (inactive), the GI50 (SF-268) is reported as 64.1 µM (inactive) and the GI50 (786-0) is reported as 34.5 µM (inactive). The GI50 (T47D) was 12.4 µM (inactive), the GI50 (NCI/ADR-RES) was 50.7 µM (inactive) and the GI50 (SK-MEL-2) was > 100 µM (inactive). The GI50 (MDA-MB-435) was 16.2 µM (inactive), the GI50 (SNB-75) was 9.48 µM (inactive) and the GI50 (MOLT-4) was 15.1 µM (inactive). For the same molecule, the GI50 (NCI-H226) was 94.2 µM (inactive), the GI50 (A498) was 61.1 µM (inactive) and the GI50 (M14) was 31.3 µM (inactive). For the same molecule, the GI50 (OVCAR-4) was 18 µM (inactive), the GI50 (DU-145) was 36.2 µM (inactive) and the GI50 (UACC-257) was 20.3 µM (inactive). The GI50 (EKVX) was 52.8 µM (inactive), the GI50 (HT-29) was 57.4 µM (inactive) and the GI50 (CAKI-1) was 5.2 µM (inactive). For the same molecule, the GI50 (HCT-15) was 81.5 µM, the GI50 (HCT-116) was 29.8 µM (inactive) and the GI50 (IGROV-1) was 67 µM (inactive). The GI50 (SK-MEL-28) was 30.7 µM (inactive), the GI50 (HOP-62) was > 100 µM (inactive) and the GI50 (MDA-N) was 21.5 µM (inactive). For the same molecule, the GI50 (MDA-MB-231) was 64.7 µM (inactive), the GI50 (SNB-19) was > 100 µM (inactive) and the GI50 (MCF7) was 15.8 µM (inactive). The GI50 (Malme-3M) was 18.8 µM (inactive), the GI50 (NCI-H460) was > 100 µM (inactive) and the GI50 (SR) was 34.9 µM (inactive). For the same molecule, the GI50 (ACHN) was 26.6 µM (inactive), the GI50 (KM12) was > 100 µM (inactive) and the GI50 (NCI-H23) was 19.1 µM (inactive). For the same molecule, the GI50 (SN12C) was > 100 µM (inactive), the GI50 (OVCAR-5) was > 100 µM (inactive) and the GI50 (UACC-62) was > 100 µM (inactive). For the same molecule, the GI50 (NCI-H522) was 6.21 µM (inactive), the GI50 (SK-MEL-5) was 23.6 µM (inactive) and the GI50 (A549) was 68.5 µM (inactive). The GI50 (PC-3) was 45.2 µM (inactive), the GI50 (LOX IMVI) was 31.8 µM (inactive) and the GI50 (HCC 2998) was > 100 µM (inactive). The GI50 (K562) was 22.5 µM (inactive), the GI50 (COLO 205) was 23.2 µM (inactive) and the GI50 (U-251) was 61.2 µM (inactive). The GI50 (HOP-92) was 31.2 µM (inactive), the GI50 (SW-620) was 21.6 µM (inactive) and the GI50 (OVCAR-3) was 18.7 µM (inactive). The GI50 (SF-295) was > 100 µM (inactive), the GI50 (OVCAR-8) was 18.8 µM (inactive) and the GI50 (UO-31) was 27 µM (inactive). For the same molecule, the GI50 (SF-539) was > 100 µM (inactive), the GI50 (SK-OV-3) was > 100 µM (inactive) and the GI50 (HL-60) was 3.94 µM (inactive). The GI50 (CCRF-CEM) was 3.46 µM (inactive).

Source: ChEMBL document CHEMBL1201862, “PubChem BioAssay data set” (2004)
